Our source for the ED50 values is US4440932A, “7β-Arylalkyl-7α-methyl-6-oxo or 6α-hydroxy-3-methoxy or 3-hydroxy-4,5α-epoxy-17-methyl or 17-cycloalkyl-methylmorphinans” (Miles Laboratories, Inc., priority 1982, dated 1984).

Where “and” joins values, the source holds several entries; their conditions need not be identical. Identical values can stand only once.

The test system of the test is mice. As to the kind of experiment: acetic acid induced writhing test (analgesic effects in mice, subcutaneous). Conditions: Mus musculus, sc, acetic acid i.p. 15 min post drug, writhes counted over 20 min, read-out: ED50 (dose required to reduce the number of writhes by 50%). It is filed as in vivo, mice (male CD-1). The method, then: Analgesic effects of the test compounds were determined in mice by use of the acetic acid induced writhing test described by B. A. Whittle, Brit. J. Pharmacol., 22:246 (1964). In this test, at least 3 groups of 5 male CD-1 mice each were given subcutaneous doses of the test drug dissolved in distilled water. In all cases, 0.4 ml of a 0.5% v/v acetic acid in distilled water solution was administered intraperitoneally 15 min. post drug. The number of writhes in a 20 min. interval beginning 5 min. after the acetic acid injection were determined and compared with the number of writhes in a control group which had received only acetic acid.
Percent inhibition of writhing was calculated as: [formula]
The ED50 dose, i.e., the dose required to reduce the number of writhes by 50%, was determined graphically from a plot of % inhibition as a probit verus log dose. Confidence limits of 95% were calculated on the basis of those results falling in the range 16-84% inhibition. See Lichtfield, J. T. and Wilcoxon, F., J. Pharmacol. Exp. Ther., 96, 99-113 (1949).
On the technique in general: In writhing tests, fewer writhes than in controls are read as antinociception.
In general, ED50 refers to the midpoint of the dose-response relation. With `COc1ccc2c3c1O[C@H]1C(=O)[C@](C)(CCCCc4ccccc4)C[C@H]4[C@@H](C2)N(C)CC[C@]314` [CMf, 7α,17-Dimethyl-4,5α-epoxy-3-methoxy-7β-(4-phenylbutyl)morphinan-6-one], the 50% effective dose (ED50) was 0.023 µmol/kg and 0.011 mg/kg.
Turning to `COc1ccc2c3c1O[C@H]1[C@@H](O)[C@](C)(CCCCc4ccccc4)C[C@H]4[C@@H](C2)N(CC2CCC2)CC[C@@]341` [BBf], the ED50 was 11.3 µmol/kg and 6.1 mg/kg.
Turning to `C[C@@]1(CCCCc2ccccc2)C[C@H]2[C@H]3Cc4ccc(O)c5c4[C@@]2(CCN3CC2CC2)[C@@H](O5)C1=O` [DPf], the 50% effective dose (ED50) was 0.11 µmol/kg and 0.07 mg/kg.
As to `COc1ccc2c3c1O[C@H]1C(=O)[C@](C)(CCCCc4ccccc4)C[C@H]4[C@@H](C2)N(CC2CCC2)CC[C@]314` [CBf], the ED50 was 5.6 µmol/kg and 2.8 mg/kg.
Consider `C[C@@]1(CCCCc2ccccc2)C[C@H]2[C@H]3Cc4ccc(O)c5c4[C@@]2(CCN3CC2CCC2)[C@@H](O5)C1=O` [DBf], for which the ED50 is 0.17 µmol/kg and 0.08 mg/kg.
To `C[C@@]1(CCc2ccccc2)C[C@H]2[C@H]3Cc4ccc(O)c5c4[C@@]2(CCN3CC2CCC2)[C@@H](O5)C1=O` [DBd] belongs 0.04 µmol/kg and 0.021 mg/kg.
To `COc1ccc2c3c1O[C@H]1[C@@H](O)[C@](C)(CCCCc4ccccc4)C[C@H]4[C@@H](C2)N(CC2CC2)CC[C@@]341` [BPf] belongs 0.5 µmol/kg and 0.26 mg/kg; to `COc1ccc2c3c1O[C@H]1[C@@H](O)[C@](C)(CCc4ccccc4)C[C@H]4[C@@H](C2)N(CC2CCC2)CC[C@@]341` [BBd], 1 µmol/kg and 0.51 mg/kg.
With `CN1CC[C@]23c4c5ccc(O)c4O[C@H]2C(=O)[C@](C)(CCCCc2ccccc2)C[C@H]3[C@H]1C5` [DMf, 7α,17-Dimethyl-4,5α-epoxy-3-hydroxy-7β-(4-phenylbutyl)morphinan-6-one], the ED50 was 0.01 µmol/kg and 0.0048 mg/kg.
Consider `COc1ccc2c3c1O[C@H]1C(=O)[C@](C)(CCc4ccccc4)C[C@H]4[C@@H](C2)N(CC2CCC2)CC[C@]314` [CBd], for which the 50% effective dose (ED50) was 0.01 µmol/kg and 0.011 mg/kg.
Regarding `COc1ccc2c3c1O[C@H]1C(=O)[C@](C)(CCCCc4ccccc4)C[C@H]4[C@@H](C2)N(CC2CC2)CC[C@]314` [CPf], the ED50 was 2 µmol/kg and 1.1 mg/kg.
To `COc1ccc2c3c1O[C@H]1[C@@H](O)[C@](C)(CCCCc4ccccc4)C[C@H]4[C@@H](C2)N(C)CC[C@@]341` [BMf, 7α,17-Dimethyl-4,5α-epoxy-3-methoxy-7β-(4-phenylbutyl)morphinan-6α-ol] belongs 0.049 µmol/kg and 0.023 mg/kg.
